A melting point compilation (Tetko et al.; mined from patent text by program, amines drawn as free bases though some values may be those of a salt)

melting point [°C] | Compound
61 | CCCCCNC(=O)N(C)c1cccc(-c2ccc(C=C(OC)C(=O)O)cc2OCCCC)c1
165 to 166 | Cc1c(S(=O)(=O)c2ccc(Cl)cc2)cc(C(C)C)c(O)c1C(=O)O
140 to 142 | COc1ccc2cc(-c3ccc(OCC(O)CNC(C)C)cc3)n(C)c(=O)c2c1 (centres undefined)
113 to 114 | COc1cccc(CC(=O)O)c1OCc1nc(OC(C)C)c(C(=O)NCc2ccc(Cl)cc2Cl)s1
245 to 247 | CCOC(=O)Nc1nc(-c2ccccc2)c(-c2nc3ccccc3c(=O)n2-c2ccccc2)s1
188 | COC(=O)c1cc(C(=O)c2c(C)c(OC)c3c(OCC(=O)OC(C)(C)C)cccn23)ccc1N
203 to 204 | CCCc1c(OCc2ccc(C=CC(=O)O)cc2)ccc(C(C)=O)c1O
90 to 91 | Cc1ccc(S(=O)(=O)N2CCCC2CO)cc1 (centres undefined)
> 260 | O=C(Nc1nc2ccc(Sc3cnc4ccc(-c5cccc(F)c5)cn34)cc2s1)C1CC1
296 | O=C1C2=C(NC3(OCCO3)C(c3ccccc3)=N2)c2ccccc21
103 to 104 | CCNc1cc(O)c(C(C)=O)cc1C(C)=O
> 250 | Cc1c2c(nn1C)c(N)nc1ccccc12
81 to 83 | COc1ccc(C(C)c2cc(O)ccc2OC)cc1 (centres undefined)
> 260 | Oc1ccc(Nc2n[nH]c3ncnc(Nc4cccc(Cl)c4)c23)cc1
199 to 200 | N#Cc1cc(C(=O)NNC(=O)c2occc2-c2ccc(Oc3ccccc3)cc2)ccc1O
132 to 134 | COC(=O)c1ccc(C(=O)OC)c(S(=O)(=O)NC(C)(C)C)c1
262 to 264 | COc1cccc2c1CN(c1c(F)cc3c(=O)c(C(=O)O)cn4c3c1OCC4C)C2 (centres undefined)
150 | CCC(Oc1ccc(C=Cc2nc[nH]n2)cc1)C(N)=O (centres undefined)
158 to 159 | CC(=O)c1ccc2c(c1)ncn2-c1cccc(-c2ccccn2)c1
189 to 192 | NC(=O)Cc1c[nH]c2cc(OCc3ccccc3)ccc12

melting point [°C] | Compound
200 to 201 | NS(=O)(=O)c1ccc(S(=O)(=O)c2ccc(OC(=O)c3cccnc3)cc2)s1
232 to 234 | Cc1csc(-c2ccc3c(c2)C=C(C(=O)Nc2ccc(CN(C)C4CCOCC4)cc2)CCS3(=O)=O)c1
193 to 194 | O=C(O)Cc1coc2cc(OCc3cc(-c4ccc(Cl)cc4)on3)ccc12
133 to 134 | CN1CCCC1c1ccc(CCNC(=O)c2ccc(Br)cc2)cc1 (centres undefined)
110 to 115 | O=C(Nc1ccccn1)C(CC1CCCC1)c1ccc([N+](=O)[O-])cc1 (centres undefined)
211 to 214 | O=c1c(-c2cccc(F)c2)c(CNc2ncnc3[nH]cnc23)oc2ccccc12
208 to 209 | CCCN1CCN(c2cc3ccccc3c(=O)[nH]2)CC1
229 to 230 | NS(=O)(=O)c1cc(C(=O)O)cc(NCc2ccc3c(c2)OCO3)c1Oc1ccccc1
196 to 198 | COc1cccc(CNC(=O)c2nc3ccc(F)c(OCCc4ccc(-n5cn[nH]c5=O)cc4)c3c(=O)[nH]2)c1
100 to 105 | CS(=O)(=O)c1ccc([C@@H](CC2CCCC2)C(=O)Nc2nc3ccccc3s2)cc1
98 to 99 | Cc1oc(-c2ccccc2)nc1COc1ccc(Cn2cc(CO)c(C(C)C)n2)cc1
52 to 54 | COc1ccc(-n2ccc3ccccc32)cc1
152 to 153 | Cc1cc(C(=O)N2Cc3cccn3Cc3ccccc32)ccc1I
125 to 127 | FC(F)(F)c1ccc(CN2CC=C(/C=C/c3ccccc3)CC2)cc1
> 260 | COc1cccc(-n2c(=O)c3c(c4cccnc42)OCC3)c1
158 | CCOC(=O)c1ccc2nc(CC3CCN(c4ccc(Cl)nn4)CC3)sc2c1
134 to 136 | CCOC(=O)C(C(=O)OCC)[C@@H](c1ccccc1)c1c[nH]c2cccc(OC)c12
120 to 122 | c1ccc(COc2ccc(CCOc3ccc(CCNc4ncnc5nccnc45)cc3)cc2)cc1
70 | CC(C)C(C(=O)OCc1nn(Cc2ccccc2)c(=O)o1)c1ccc(Cl)cc1 (centres undefined)
112 | Cc1ccccc1N(CCC(=O)O)C(=O)Cl

melting point [°C] | Compound
228 to 229 | O=c1c2c(CBr)c(-c3ccc([N+](=O)[O-])cc3)sc2n(Cc2c(F)cccc2F)c(=O)n1-c1ccccc1
117 to 119 | COC(=O)c1ccc(CCNCC(O)c2cc3ccccc3o2)cc1 (centres undefined)
190 to 193 | Cc1cc(NC(=O)c2c(Cl)cccc2Cl)c2nccc(Cl)c2c1C
142 | COc1c(CC(C(=O)O)C(=O)O)cccc1C(=O)c1ccc(Cl)cc1
89 to 92 | CSC(C)(C(=O)O)c1ccc(CC(C)C)cc1 (centres undefined)
171 | Cc1ccc(S(=O)(=O)N2CCN(C(c3ccccc3)c3ccc(Cl)cc3)CC2)cc1 (single isomer, unassigned; (+))
146 to 148 | CC(C)(C(=O)O)c1ccc(-c2ccc(Cl)cc2)s1
51 to 54 | COc1cccc(C(=O)Cl)c1OC(C)=O
117 to 118 | C#Cc1c(-c2ccc(F)cc2)nn(-c2ccccc2)c1C(C)C
74 to 75 | COc1ccc2[nH]c(C)cc2c1OCc1ccccc1
85 to 87 | COc1cccc(C=Cc2ccccc2)c1O
173 | N#Cc1c(N2CCN(C(=O)c3cccs3)CC2)c2cc(F)cnc2n(Cc2ccccc2)c1=O
98 to 102 | CCCCC1(O)CCN(C(=O)C(c2ccccc2)n2cnc3[nH]ncc3c2=S)CC1 (centres undefined)
71.5 | CCOC(=O)c1ccc(/C=C(\C)c2ccc(OC)c(C(C)(C)C)c2)cc1
> 300 | Cn1nc(N)c2c(=O)n(-c3ccccc3)c3ncccc3c21
210 to 214 | O=C(O)c1ccc(C=CC=CC(=O)c2ccccc2)cc1
141 to 142 | CCCN(CCC)[C@@H]1CCc2cc(CNC(=O)c3ccc(Cl)cc3)ccc2C1
300 to 301 | Cn1c(C(N)=O)c(-c2ccc(F)cc2)c2ncccc2c1=O

Further lines, the molecule ahead of its results:

Compound | melting point [°C]
CC(C)(C#N)c1c(Cl)cc([N+](=O)[O-])cc1Cl | 80
CC(=O)c1cc2cc(OCC(=O)O)c(Cl)c(Cl)c2s1 | 203 to 205
CCCC#Cc1cnc(-c2ccc(F)cc2)nc1 | 51
COCc1nc2c(N)nc3cc(CCC(=O)N(C)C)ccc3c2n1CC(C)(C)O | 142 to 145
CCC[C@H]1[C@@H](O)CC(=O)N1c1ccc(C#N)c(Cl)c1 | 143 to 146
CC(C)(C)OC(=O)c1cc[nH]c1 | 82 to 84
COC(=O)c1c(Cl)nc(N2CCC(O)CC2)nc1NCc1ccc(OC)c(Cl)c1 | 138 to 139
CCCc1nc2c(N)nc3cc(OCCN4CCCC4=O)ccc3c2s1 | 163 to 166
O=C(O)CSCn1cnnn1 | 98 to 101
N#CCCn1cc(C#N)c([N+](=O)[O-])n1 | 137 to 139
Nc1cc(O)ccc1F | 137 to 139
CS(=O)(=O)NC1CCCc2ccc([N+](=O)[O-])cc21 (centres undefined) | 150 to 152
COCCOCC(=O)Nc1c([N+](=O)[O-])cnn1-c1c(Cl)cc(C(F)(F)F)cc1Cl | 103 to 105
COc1cc(-c2ccc3n[nH]c(=O)n3n2)cc(OC)c1OC | 289 to 290
NC(=S)C1CCCc2c1ncc1c2CCCC1 (centres undefined) | 162
CCOc1ccc2[nH]c(C)cc2c1 | 76 to 77
COc1cc(O)ccc1-c1nc2cnccc2[nH]1 | 255
COc1ccc(S(=O)(=O)C2(C(=O)NO)CCN(C3CCCCCCC3)CC2)cc1 | > 200
CNC(=S)NCCSCc1[nH]cnc1C | 150 to 152
COc1cc(C(S)CS)cc(OC)c1OC (centres undefined) | 72.5 to 73.5
COC(=O)CCCc1cc2nc(Cl)ccc2n1S(=O)(=O)c1ccc2snnc2c1 | 219
CCc1cc(Oc2c(Cl)cc(C(F)(F)F)cc2Cl)n[nH]1 | 118 to 121
CN(C)C(=O)Oc1cccc2c1CN(Nc1ccncc1)C2 | 183 to 185

Compound | melting point [°C]
CCCCCCCCNC(=O)N=C(NC(=O)NCC)OC | 88 to 90
CC1(O)CCN(C(=O)c2cc(-c3cnc4[nH]cc(C(=O)C5(C)CCCCC5)c4n3)cs2)CC1 | 257 to 259
CCC12CCC3C4CCC(=O)C=C4CCC3C1CCC2OC(=O)CCc1ccccc1 (centres undefined) | 135 to 140
Cc1cn(C)c(=O)n(-c2cc(C(=O)OC(C)C)c(Cl)cc2F)c1=O | 177 to 180
C=CCc1cc2ccc(=O)oc2c(OC)c1OC(C)=O | 101 to 102
C1CN2CCN3CCN(CCN1)P23 | 109 to 111
CC(C)CCCC(C)C1CCC2C3CCC4CC(OC(=O)c5ccccc5)CCC4(C)C3CCC12C (centres undefined) | 215 to 216
CCCCc1nc2c(N)nc3cccnc3c2n1CCNC(=O)C1CCC(=O)O1 (centres undefined) | 153 to 154
Nc1cc(Oc2cc(Oc3cc(N)cc(C(F)(F)F)c3)cc(C(F)(F)F)c2)cc(C(F)(F)F)c1 | 82 to 84
CCCc1nc2c(N)nc(C)c(C)c2n1C1(OC)CCCCC1 | 192 to 193
CCCCOc1ccc2c3c([nH]c2c1)CC(NC(C)=O)CC3 (centres undefined) | 182 to 184
CCOC(=O)NC(C)CC(NC(=O)OCC)NC(=O)OCC (centres undefined) | 103 to 105
CNC(=O)NC1CCCc2sccc21 (centres undefined) | 183 to 186
CCCCCCCCCCCn1ncnc1NC(=O)Nc1c(C(C)C)cccc1C(C)C | 146 to 148
CCCCCCCCCCCCCCCCc1ccccc1O | 54 to 55
c1nnc2c3c(c(NCCCN4CCCC4)nn12)CCCC3 | 169 to 171
COC(=O)c1cnc(Cl)o1 | 35 to 50
CCC(=O)C1CCC2C3CCC4CC(=O)CCC4(C)C3C(=O)CC12C (centres undefined) | 148
CON(C(=O)c1cn(C)nc1C(F)F)C(C)C1CC1c1ccc(Cl)cc1Cl (centres undefined) | 133 to 135
CC(C)(C)NC(=O)C1(O)CC(C)(C)NC(C)(C)C1 | 134 to 136
COc1cc(NC(=O)C(C#N)=CNc2ccc(OC)c(Br)c2)c(Cl)cc1Cl | > 250
CCCCCCCCCCCCCCCCC(CO)C(=O)O (centres undefined) | 62 to 67
CSc1nc(-c2nnn(C)n2)c(I)c(C(F)(F)F)n1 | 113 to 118
